Data reported in PubChem BioAssay (NCI).
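Method: 48-hour compound exposure of cells in 96-well plates, five concentrations, linear interpolation of endpoints. At the GI50, growth is halved. TGI denotes the concentration required for complete inhibition of growth.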

Experiments:
Experiment in all cases: NCI anticancer screen, dose series, 48 h
A549 NSCLC = tested on: A549 NSCLC
DU-145 prostate = tested on: DU-145 prostate
HS 578T breast = tested on: HS 578T breast
OVCAR-5 ovarian = tested on: OVCAR-5 ovarian
OVCAR-8 ovarian = tested on: OVCAR-8 ovarian
SK-MEL-28 melanoma = tested on: SK-MEL-28 melanoma
UACC-62 melanoma = tested on: UACC-62 melanoma

| SMILES | TGI (A549 NSCLC) | TGI (DU-145 prostate) | TGI (HS 578T breast) | TGI (OVCAR-5 ovarian) | TGI (OVCAR-8 ovarian) | TGI (SK-MEL-28 melanoma) | TGI (UACC-62 melanoma) | GI50 (DU-145 prostate) | GI50 (HS 578T breast) | GI50 (OVCAR-5 ovarian) | GI50 (OVCAR-8 ovarian) | GI50 (UACC-62 melanoma) | GI50 (A549 NSCLC) | GI50 (SK-MEL-28 melanoma) |
| --- | --- | --- | --- | --- | --- | --- | --- | --- | --- | --- | --- | --- | --- | --- |
| NCC(Cc1ccccc1)P(=O)(O)O (centres undefined) | > 100 µM | > 100 µM | > 100 µM | > 100 µM | > 100 µM | > 100 µM | > 100 µM | – | – | – | – | – | – | – |
| CCOC(=O)C1=CSC2=NC3=C(CCC/C3=C\c3cc(OC)c(OC)c(OC)c3)C(c3cc(OC)c(OC)c(OC)c3)N12 (centres undefined) | – | > 100 µM | > 100 µM | > 100 µM | > 100 µM | – | > 100 µM | 3.48 µM | 2.47 µM | > 100 µM | 0.376 µM | 2.71 µM | – | – |
| CCOC(=O)C1=C(C)N(Cc2ccc(Cl)cc2Cl)[C@]2(C#N)C(O)=C(Cl)C(Cl)=C(O)[C@]12C#N | > 100 µM | 38.7 µM | > 100 µM | 31.3 µM | > 100 µM | > 100 µM | – | 16.7 µM | > 100 µM | 2.7 µM | 73.4 µM | – | > 100 µM | > 100 µM |
| C=C(C)[C@@H]1CC[C@]2(C(=O)n3ccnc3)CC[C@]3(C)[C@H](CC[C@@H]4[C@@]5(C)CCCNC(C)(C)[C@@H]5CC[C@]43C)[C@@H]12 | 3.62 µM | 3.61 µM | 5.08 µM | 6.4 µM | 3.88 µM | 3.1 µM | 3.06 µM | 1.78 µM | 2.08 µM | 2.25 µM | 2.07 µM | 1.6 µM | 1.94 µM | 1.61 µM |
| Cc1cc(-c2ccco2)cc(C)c1/C=C/c1cncc(-c2nn[nH]n2)c1 | > 25 µM | > 25 µM | > 25 µM | > 25 µM | > 25 µM | > 25 µM | > 25 µM | > 25 µM | > 25 µM | > 25 µM | > 25 µM | > 25 µM | > 25 µM | > 25 µM |
| O=C(Nc1nc2c(s1)CCc1c-2c(Br)n(Cc2ccccc2)c1Br)c1ccccc1 | 23.1 µM | > 100 µM | – | > 100 µM | > 100 µM | 70.7 µM | > 100 µM | 5.19 µM | – | 47.3 µM | 3.91 µM | 4.66 µM | 3.12 µM | 4.34 µM |
| O=[N+]([O-])c1ccc(/C=C\c2ccc3c(c2)OCO3)c([N+](=O)[O-])c1 | 73.8 µM | 47 µM | 38.5 µM | 35.5 µM | 45.5 µM | 32.3 µM | 43.2 µM | – | – | – | – | – | – | – |
| CN1CCOCCOCCOc2ccccc2NC(=O)c2nc(cnc2N)-c2ccc(cc2)S1(=O)=O | – | – | > 100 µM | > 100 µM | > 100 µM | – | – | – | 3.56 µM | > 100 µM | 7.1 µM | – | – | – |
| CCOC(=O)c1cc2cc(OCc3ccccc3)ccc2[nH]1 | > 100 µM | > 100 µM | > 100 µM | > 100 µM | > 100 µM | > 100 µM | > 100 µM | > 100 µM | 49.6 µM | > 100 µM | > 100 µM | > 100 µM | > 100 µM | > 100 µM |
| Nc1n[nH]c2ccc([C@@H]3Nc4c(F)cc5[nH]ncc5c4[C@H]4C5CCC(C5)[C@@H]34)cc12 (some centres undefined) | > 100 µM | > 46.2 µM | 8.78 µM | > 55.7 µM | > 100 µM | > 60.7 µM | > 44.9 µM | 0.419 µM | 0.178 µM | 0.612 µM | 0.468 µM | 0.242 µM | 0.352 µM | 2.19 µM |
| CCC1=C(c2ccc(OC)cc2)CC[C@]2(CCNC2=O)[C@@H]1C | > 100 µM | > 100 µM | 76.2 µM | > 100 µM | > 100 µM | 74.1 µM | 67.1 µM | – | – | – | – | – | – | – |
| O=C(O)Cn1ccc(=O)c2c([N+](=O)[O-])cccc21 | > 100 µM | > 100 µM | > 100 µM | > 100 µM | > 100 µM | > 100 µM | > 100 µM | – | – | – | – | – | – | – |
| CCOC(=O)n1c2ccccc2c(=O)n1CCO | > 100 µM | > 100 µM | > 100 µM | > 100 µM | > 100 µM | > 100 µM | > 100 µM | – | – | – | – | – | – | – |
| COc1cc2c3c(n(CCCN4CCSCC4)c(=O)c2cc1OC)-c1cc2c(cc1C3=O)OCO2 | > 100 µM | > 100 µM | > 100 µM | > 100 µM | > 100 µM | > 100 µM | > 100 µM | > 100 µM | 71.7 µM | 53.6 µM | > 100 µM | 37.5 µM | > 100 µM | > 100 µM |
| Cc1cn2c(/C=C3/C(=O)Nc4ccc(C(=O)O)cc43)c(C)nc2s1 | > 100 µM | > 100 µM | > 100 µM | > 100 µM | > 100 µM | > 100 µM | > 100 µM | > 100 µM | > 100 µM | > 100 µM | > 100 µM | > 100 µM | > 100 µM | > 100 µM |
| Oc1ccc(-c2[nH]c3ccccc3c2-c2nc3ccccc3o2)cc1 | 11.4 µM | 18.3 µM | 18.4 µM | 17.2 µM | 20.9 µM | 17.9 µM | 15 µM | 5.69 µM | 2.47 µM | 4.49 µM | 4.57 µM | 3.1 µM | 3.15 µM | 4.83 µM |
| CC1=NN(c2nc(N)nc(/C=C\c3ccccc3)n2)C(C)(C)C1 | 38.3 µM | 15.5 µM | 77.5 µM | 36.5 µM | 39 µM | 22.3 µM | 16.4 µM | 3.16 µM | 13.5 µM | 20.7 µM | 5.33 µM | 3.88 µM | 15.8 µM | 9.41 µM |
| COc1ncc2cc1NS(=O)(=O)c1cccc(c1)C(=O)NCC1=CC=C(S1)c1ncnc3c1SC2=C3C | 0.805 µM | 3.4 µM | 0.355 µM | 4.02 µM | 15.5 µM | – | 1.24 µM | 0.42 µM | 0.0247 µM | 0.169 µM | 0.58 µM | 0.248 µM | 0.158 µM | – |
| CCN(CC)CCS(=O)(=O)CCNc1ccnc2cc(Cl)ccc12 | > 61.7 µM | > 32.8 µM | > 100 µM | > 100 µM | > 27.3 µM | 25.7 µM | 29.6 µM | 2.43 µM | 4.07 µM | 3.97 µM | 2.54 µM | 3.83 µM | 4.12 µM | 4.97 µM |
| CC/C(=C(/c1ccc(/C=C/C(=O)O)cc1)c1ccc2[nH]ncc2c1)c1ccc(F)cc1Cl | 25.1 µM | 27.6 µM | 38.7 µM | 35.9 µM | 37.9 µM | 22.2 µM | 21.8 µM | 14.4 µM | 8.63 µM | 17.5 µM | 14.2 µM | 5.85 µM | 8.58 µM | 7.25 µM |
| O=CC(O)C(O)C(OC1OC(CO)C(O)C(O)C1O)C(O)CO (centres undefined) (tested in a mixture with another compound) | > 100 µM | > 100 µM | > 100 µM | > 100 µM | > 100 µM | > 100 µM | > 100 µM | – | – | – | – | – | – | – |
| Nc1ccn([C@@H]2S[C@H](CO)[C@@H](O)[C@@H]2F)c(=O)n1 | > 100 µM | > 100 µM | > 100 µM | > 100 µM | > 100 µM | > 100 µM | > 38.2 µM | 0.0424 µM | > 100 µM | 0.509 µM | 0.026 µM | 0.372 µM | 0.161 µM | > 100 µM |
| O=C1c2ccccc2-c2c1c1ccc([N+](=O)[O-])cc1c(=O)n2CCCCl | > 100 µM | > 100 µM | – | > 100 µM | > 100 µM | > 100 µM | > 100 µM | 40.4 µM | – | > 100 µM | 72.1 µM | 20.3 µM | > 100 µM | 17 µM |
| CCc1ccc(C2=NN(c3ccc(S(C)(=O)=O)cc3)C(=O)CC2)cc1 | > 100 µM | > 26.8 µM | 7.77 µM | > 100 µM | > 81.8 µM | > 100 µM | > 100 µM | 2.67 µM | 0.977 µM | 6.47 µM | 2.87 µM | 0.603 µM | 0.913 µM | 1.59 µM |
| O=C(Nc1ccc(Br)cc1)Nc1cccc(Br)c1 | – | > 100 µM | > 100 µM | > 100 µM | – | > 100 µM | – | 5.8 µM | > 100 µM | > 100 µM | – | – | – | 4.77 µM |
| CCN(CC)CCCNc1c2ccc(Cl)cc2nc2ccc(OC)cc12 | 5.83 µM | 4.08 µM | 5.54 µM | – | 3.44 µM | – | 3.55 µM | 0.0476 µM | 2.05 µM | – | 0.0552 µM | 1.84 µM | 0.0582 µM | – |
| Cc1ccc(-c2nc(C(Cl)Cl)nc3cc(C)nn23)cc1 | 6.21 µM | 2.81 µM | – | 6.72 µM | > 100 µM | – | > 100 µM | 0.432 µM | – | 2.22 µM | 1.67 µM | 3.12 µM | 1.33 µM | – |
| COC(=O)[C@]1(C)CCCC2(C)C3=C(CCC21)CC1(CC3)SCCS1 (some centres undefined) | > 10 µM | > 10 µM | > 10 µM | – | > 10 µM | > 10 µM | > 10 µM | – | – | – | – | – | – | – |
| O=C(Nc1ccc(Cl)c(C(F)(F)F)c1)C(=O)c1c(O)c2ccccc2oc1=O | > 100 µM | – | > 100 µM | > 100 µM | > 100 µM | > 100 µM | > 100 µM | – | – | – | – | – | – | – |
